{"source": "ChEMBL document CHEMBL1132015", "about": "“Selective inactivation of protein tyrosine phosphatase PTP1B by sulfone analogue of naphthoquinone” (Bioorg Med Chem Lett, 1999)", "assay": "Inhibitory constant was determined against Protein tyrosine phosphatase (PTP) using the Kitz and Wilson method"}
{"smiles": "O=C1C(CCl)=CS(=O)(=O)c2ccccc21", "values": [{"measurement": "Ki", "result": 3.5, "unit": "µM"}]}
